pIC50: −log10 of the molar value.
How the values were obtained:
[1] = system: calcium level in serum in vitamin D-deficient rats; experiment: activity of increasing calcium level in serum in vitamin D-deficient rats (oral); assay type: in vivo, Wistar rats (male); settings: for Percent increase in serum Ca level (control 100%) / Calcium in the serum: po, once a day over 3 days; for Calcium in the serum: control (ethanol) 8.60
From the text: To confirm it in an in vivo (animal) test, however, its action of increasing the blood calcium level in vitamin D-deficient rats was examined.
Wistar rats (male, three weeks old) purchased from Japan Charles River Co. were fed 3 to 4 weeks with a vitamin D-deficient diet containing calcium (0.02%) and phosphorus (0.99%) to prepare vitamin D-deficient rats. The compound of this invention or 1,25-dihydroxy-26,27-dimethylvitamin D3 was orally administered to these animals once a day over 3 days. On the fourth day, blood was drawn from the animals, and calcium in the serum was measured by atomic absorptiometry.
As soon as the administration began, the feed was changed to one which was vitamin D-deficient but contained calcium in a normal amount (0.56%).

[2] = system: calcium level in the serum; settings: as shown in Japanese Laid-Open Patent Publication No. 44860/1986; cited from earlier work
[3] = system: calcium level in the serum in vitamin D-deficient low-calcium rats; experiment: effect of inhibiting dissolution of calcium from bones: calcium level in serum in vitamin D-deficient low-calcium rats (intravenous); assay type: in vivo, Wistar rats (male); settings: 500 P moles/100 g body weight, one intravenous administration, next day
From the text: Vitamin D has both an action of calcium deposition on bones and an action of liberating calcium from the bones, and promotes bone formation when the balance between these actions is shifted toward the former. Accordingly, a vitamin D derivative which inhibits dissolution of calcium from bones can be expected to have a very strong bone-forming action. In the present test, calcium in the feed was limited to a low level, and under conditions in which no calcium absorption from the intestinal tract occurred, the activity to increase the calcium level in the serum was examined. This activity is considered to reflect calcium dissolution from the bones.
The following test was conducted in accordance with the method of C. Kaneko et al. [C. Kaneko, S. Yamada, A. Sugimoto, M. Katuta, and S. Sasaki: Steroids, 23, 75 (1974)].
Three week old Wistar rats (male) were purchased from Japan Charles River Co., and were fed for 19 days with a feed being deficient in vitamin D and containing low calcium (0.02%) to prepare vitamin D-deficient hypocalcemia rats. An ethanol solution of an assay compound was intravenously administered once to the rats. On the next day, blood was drawn from the animals, and the calcium level in the serum was measured by atomic absorptiometry (using a double beam atomic absorption photometer made by Shimazu Seisakusho; Model AA-650).

[4] = target: T1, 1,25-dihydroxyvitamin D3 receptor in the intestines of chicken embryo (Gallus gallus, UniProt O42392); experiment: receptor binding ability (in vitro), 1,25-dihydroxyvitamin D3 receptor, charcoal method
T1 sequence (O42392 1-451): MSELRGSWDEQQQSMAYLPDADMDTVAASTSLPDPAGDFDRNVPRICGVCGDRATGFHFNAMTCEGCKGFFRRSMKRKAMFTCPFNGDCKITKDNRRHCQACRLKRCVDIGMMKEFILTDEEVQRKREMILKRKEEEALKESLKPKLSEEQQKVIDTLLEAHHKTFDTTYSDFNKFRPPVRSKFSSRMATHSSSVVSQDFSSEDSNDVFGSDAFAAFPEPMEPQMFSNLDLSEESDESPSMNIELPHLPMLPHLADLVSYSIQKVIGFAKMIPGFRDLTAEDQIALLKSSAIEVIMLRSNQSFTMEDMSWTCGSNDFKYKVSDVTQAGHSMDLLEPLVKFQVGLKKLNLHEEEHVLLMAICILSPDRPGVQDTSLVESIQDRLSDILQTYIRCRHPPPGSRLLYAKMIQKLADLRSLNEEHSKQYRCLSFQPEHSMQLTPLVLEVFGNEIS
Experimental: The mixture was incubated at 0° C. for 3 hours.
The free assay compound and the assay compound bound to the receptor were separated by the charcoal method.

| Structure (SMILES) | Percent increase in serum Ca level (control 100%) ([1]; 600 P moles/rat) [%] | Calcium in the serum ([1]; 600 P moles/rat) [mg/dL] | Percent increase in serum Ca level (control 100%) ([1]; 1,200 P moles/rat) [%] | Calcium in the serum ([1]; 1,200 P moles/rat) [mg/dL] | action of increasing the calcium level in the serum compared with 1α-hydroxyvitamin D3 or 1,25-dihydroxyvitamin D3 (in words) [2] | activity to increase the calcium level in the serum compared with 1,25-dihydroxyvitamin D3 (in words) ([1]; inferred via 1,25-dihydroxy-26,27-dimethylvitamin D3 comparator) | action of increasing the calcium level in the serum (in words) ([1]; vitamin D-deficient rats, oral) | Percent increase in serum Ca level (control 100%) ([3]; control 100%) [%] | Calcium in the serum ([3]; control (ethanol) 4.47, * significant at P <0.05 vs control) [mg/dL] | pIC50 [4] |
| --- | --- | --- | --- | --- | --- | --- | --- | --- | --- | --- |
| C=C1/C(=C\C=C2/CCC[C@]3(C)[C@@H]([C@H](C)CCCC(O)(CC)CC)CC[C@@H]23)C[C@@H](O)C[C@@H]1O [1,25-Dihydroxy-26,27-dimethyl-vitamin D3, 1,25-dihydroxy-26,27-dimethylvitamin D3, reference compound] | 105 | 9.00 | 112 | 9.60 | stronger action of increasing the calcium level in the serum than 1α-hydroxyvitamin D3 or 1,25-dihydroxyvitamin D3 | – | – | – | – | – |
| C=C1/C(=C\C=C2/CCC[C@]3(C)[C@@H]([C@H](C)CCCC(F)(F)C(C)(C)O)CC[C@@H]23)C[C@@H](O)C[C@@H]1O [Compound of the invention, 1α,25-dihydroxy-24a,24a-difluoro-24-homovitamin D3] | 114 | 9.80 | 119 | 10.20 | – | stronger than that of 1,25-dihydroxyvitamin D3 | shows an action of increasing the calcium level in the serum | 94.2 | 4.21 | 7.30 |

Reference: patent US4832875A, “Vitamin D3 derivative” (Taisho Pharmaceutical Co., Ltd., priority 1985, dated 1989)
